{"source": "paper PMC12133000", "about": "(PLOS One, 2025)", "assay": "Pharmacokinetics of rivaroxaban in rats after avitinib or gefitinib pretreatment", "type": "in vivo, Sprague–Dawley (SD) rats", "conditions": "male, Sprague-Dawley, rat, plasma, oral", "method": "Eighteen male Sprague–Dawley (SD) rats weighing 300 ± 20 g were provided by the Experimental Animal Center of Wenzhou Medical University (Wenzhou, China) and kept under controlled conditions at a temperature of 23 ± 2 °C, relative humidity of 50 ± 10%, and 12 h light–dark cycle. Eighteen male SD rats were randomly assigned to three groups: avitinib, gefitinib, and control, with six rats per group. Prior to the experiment, the rats were not administered any other medications and fasted for 12 h. The experimental procedures and protocols adhered to Animal Ethics standards and were approved by the Animal Care and Use Committee of Wenzhou Medical University (approval no. wydw2019–650). All rats were anesthetized with sodium pentobarbital (40mg/kg, i.p) to relieve pain. The rats were killed through cervical dislocation.\nPrior to the experiment in vivo, the six rats in the avitinib group were administered 30 mg/kg avitinib and 0.5% sodium carboxymethyl cellulose (CMC-Na) solution by gavage daily for 7 d. […] The supernatant was collected and stored at −80 °C. After thawing, 50 μL of plasma was extracted; 100 μL of acetonitrile solution containing midazolam (200 ng/mL) was then added to induce protein precipitation. After vortexing for 30 s and centrifuging at 13,000 rpm for 5 min, the […].\nAll assays were performed in triplicate, and the results are expressed as mean ± standard deviation. DAS software v. […] SPSS v. 25.0 (IBM, NY, USA) was used for data processing. Student’s t-tests were used to detect differences between groups. Differences with p < 0.05 were considered statistically significant.", "note": "Like-named read-outs stand apart in the source and are kept apart here."}
{"smiles": "O=C(NC[C@H]1CN(c2ccc(N3CCOCC3=O)cc2)C(=O)O1)c1ccc(Cl)s1", "note": "[rivaroxaban, Rivaroxaban]", "values": [{"measurement": "concentration at 6 h", "setting": "10 mg/kg, rivaroxaban ng/ml mean, control (rivaroxaban alone) group, mean of rats 13-18, time 6", "result": 141, "unit": "ng/mL"}, {"measurement": "concentration at 8 h", "setting": "10 mg/kg, rivaroxaban ng/ml mean, control (rivaroxaban alone) group, mean of rats 13-18, time 8", "result": 93, "unit": "ng/mL"}, {"measurement": "concentration at 12 h", "setting": "10 mg/kg, rivaroxaban ng/ml mean, control (rivaroxaban alone) group, mean of rats 13-18, time 12", "result": 76.8, "unit": "ng/mL"}, {"measurement": "concentration at 0.25 h", "setting": "10 mg/kg, rivaroxaban ng/ml, 对照 (control, rivaroxaban alone) group, individual rats 13-18, time 0.25", "result": 305, "unit": "ng/mL"}, {"measurement": "concentration at 0.5 h", "setting": "10 mg/kg, rivaroxaban ng/ml, 对照 (control, rivaroxaban alone) group, individual rats 13-18, time 0.5", "result": 434, "unit": "ng/mL"}, {"measurement": "concentration at 1 h", "setting": "10 mg/kg, rivaroxaban ng/ml, 对照 (control, rivaroxaban alone) group, individual rats 13-18, time 1", "result": 458, "unit": "ng/mL"}, {"measurement": "concentration at 4 h", "setting": "10 mg/kg, rivaroxaban ng/ml, 对照 (control, rivaroxaban alone) group, individual rats 13-18, time 4", "result": 190, "unit": "ng/mL"}, {"measurement": "concentration at 12 h", "setting": "gefitinib group, Mean, read-out: C_last", "result": 2070, "unit": "ng/mL"}, {"measurement": "concentration at 5 min", "setting": "plasma concentration of rivaroxaban, 5 min, avitinib group, Mean", "result": 284, "unit": "ng/mL"}, {"measurement": "concentration at 5 min", "setting": "plasma concentration of rivaroxaban, 5 min, avitinib group, single rats No1-No6", "result": 237, "unit": "ng/mL"}, {"measurement": "concentration at 5 min", "setting": "plasma concentration of rivaroxaban, 5 min, gefitinib group, Mean", "result": 626, "unit": "ng/mL"}, {"measurement": "concentration at 0.25 h", "setting": "plasma concentration of rivaroxaban, 0.25 h, avitinib group, Mean", "result": 588, "unit": "ng/mL"}, {"measurement": "concentration at 0.25 h", "setting": "plasma concentration of rivaroxaban, 0.25 h, gefitinib group, Mean", "result": 1740, "unit": "ng/mL"}, {"measurement": "concentration at 0.25 h", "setting": "plasma concentration of rivaroxaban, 0.25 h, gefitinib group, single rats No1-No6", "result": 1690, "unit": "ng/mL"}, {"measurement": "concentration at 0.5 h", "setting": "plasma concentration of rivaroxaban, 0.5 h, avitinib group, Mean", "result": 1090, "unit": "ng/mL"}, {"measurement": "concentration at 0.5 h", "setting": "plasma concentration of rivaroxaban, 0.5 h, gefitinib group, Mean", "result": 3670, "unit": "ng/mL"}, {"measurement": "concentration at 0.5 h", "setting": "plasma concentration of rivaroxaban, 0.5 h, gefitinib group, single rats No1-No6", "result": 4080, "unit": "ng/mL"}, {"measurement": "concentration at 1 h", "setting": "plasma concentration of rivaroxaban, 1 h, avitinib group, Mean", "result": 1730, "unit": "ng/mL"}, {"measurement": "concentration at 1 h", "setting": "plasma concentration of rivaroxaban, 1 h, gefitinib group, Mean", "result": 5580, "unit": "ng/mL"}, {"measurement": "concentration at 1 h", "setting": "plasma concentration of rivaroxaban, 1 h, gefitinib group, single rats No1-No6", "result": 6110, "unit": "ng/mL"}, {"measurement": "concentration at 2 h", "setting": "plasma concentration of rivaroxaban, 2 h, avitinib group, Mean", "result": 1650, "unit": "ng/mL"}, {"measurement": "concentration at 2 h", "setting": "plasma concentration of rivaroxaban, 2 h, gefitinib group, Mean", "result": 7180, "unit": "ng/mL"}, {"measurement": "concentration at 3 h", "setting": "plasma concentration of rivaroxaban, 3 h, avitinib group, Mean", "result": 1390, "unit": "ng/mL"}, {"measurement": "concentration at 3 h", "setting": "plasma concentration of rivaroxaban, 3 h, gefitinib group, Mean", "result": 7690, "unit": "ng/mL"}, {"measurement": "concentration at 3 h", "setting": "plasma concentration of rivaroxaban, 3 h, gefitinib group, single rats No1-No6", "result": 6480, "unit": "ng/mL"}, {"measurement": "concentration at 4 h", "setting": "plasma concentration of rivaroxaban, 4 h, avitinib group, Mean", "result": 1010, "unit": "ng/mL"}, {"measurement": "concentration at 4 h", "setting": "plasma concentration of rivaroxaban, 4 h, gefitinib group, Mean", "result": 7800, "unit": "ng/mL"}, {"measurement": "concentration at 4 h", "setting": "plasma concentration of rivaroxaban, 4 h, gefitinib group, single rats No1-No6", "result": 6780, "unit": "ng/mL"}, {"measurement": "concentration at 6 h", "setting": "plasma concentration of rivaroxaban, 6 h, avitinib group, Mean", "result": 538, "unit": "ng/mL"}, {"measurement": "concentration at 6 h", "setting": "plasma concentration of rivaroxaban, 6 h, gefitinib group, Mean", "result": 5500, "unit": "ng/mL"}, {"measurement": "concentration at 6 h", "setting": "plasma concentration of rivaroxaban, 6 h, gefitinib group, single rats No1-No6", "result": 5830, "unit": "ng/mL"}, {"measurement": "concentration at 8 h", "setting": "plasma concentration of rivaroxaban, 8 h, avitinib group, Mean", "result": 448, "unit": "ng/mL"}, {"measurement": "concentration at 8 h", "setting": "plasma concentration of rivaroxaban, 8 h, gefitinib group, Mean", "result": 3710, "unit": "ng/mL"}, {"measurement": "concentration at 8 h", "setting": "plasma concentration of rivaroxaban, 8 h, gefitinib group, single rats No1-No6", "result": 4960, "unit": "ng/mL"}, {"measurement": "concentration at 12 h", "setting": "plasma concentration of rivaroxaban, 12 h, avitinib group, Mean", "result": 80.9, "unit": "ng/mL"}, {"measurement": "concentration at 12 h", "setting": "plasma concentration of rivaroxaban, 12 h, gefitinib group, Mean", "result": 1640, "unit": "ng/mL"}, {"measurement": "concentration at 24 h", "setting": "rivaroxaban ng/ml mean, 吉非替尼 (gefitinib) group, mean (four rats), time 24", "result": 144, "unit": "ng/mL"}, {"measurement": "concentration at 5 min", "setting": "rivaroxaban ng/ml mean, 吉非替尼 (gefitinib) group, mean of rats 7-12, time 0.0833", "result": 626, "unit": "ng/mL"}, {"measurement": "concentration at 0.25 h", "setting": "rivaroxaban ng/ml mean, 吉非替尼 (gefitinib) group, mean of rats 7-12, time 0.25", "result": 1740, "unit": "ng/mL"}, {"measurement": "concentration at 0.5 h", "setting": "rivaroxaban ng/ml mean, 吉非替尼 (gefitinib) group, mean of rats 7-12, time 0.5", "result": 3670, "unit": "ng/mL"}, {"measurement": "concentration at 1 h", "setting": "rivaroxaban ng/ml mean, 吉非替尼 (gefitinib) group, mean of rats 7-12, time 1", "result": 5580, "unit": "ng/mL"}, {"measurement": "concentration at 2 h", "setting": "rivaroxaban ng/ml mean, 吉非替尼 (gefitinib) group, mean of rats 7-12, time 2", "result": 7180, "unit": "ng/mL"}, {"measurement": "concentration at 3 h", "setting": "rivaroxaban ng/ml mean, 吉非替尼 (gefitinib) group, mean of rats 7-12, time 3", "result": 7690, "unit": "ng/mL"}, {"measurement": "concentration at 4 h", "setting": "rivaroxaban ng/ml mean, 吉非替尼 (gefitinib) group, mean of rats 7-12, time 4", "result": 7800, "unit": "ng/mL"}, {"measurement": "concentration at 6 h", "setting": "rivaroxaban ng/ml mean, 吉非替尼 (gefitinib) group, mean of rats 7-12, time 6", "result": 5500, "unit": "ng/mL"}, {"measurement": "concentration at 8 h", "setting": "rivaroxaban ng/ml mean, 吉非替尼 (gefitinib) group, mean of rats 7-12, time 8", "result": 3710, "unit": "ng/mL"}]}
